{"source": "paper PMC9405973", "about": "“Altered Conformational Landscape upon Sensing Guanine Nucleotides in a Disease Mutant of Elongation Factor-like 1 (EFL1) GTPase” (Biomolecules, 2022)", "key": {"Efl1 R1086Q": {"biological_target": "T1, Efl1 R1086Q (Saccharomyces cerevisiae, UniProt P53893, R1086Q)", "T1 construct": "made in house; host or cells: Saccharomyces cerevisiae", "T1 sequence (P53893 whole entry R1086Q)": "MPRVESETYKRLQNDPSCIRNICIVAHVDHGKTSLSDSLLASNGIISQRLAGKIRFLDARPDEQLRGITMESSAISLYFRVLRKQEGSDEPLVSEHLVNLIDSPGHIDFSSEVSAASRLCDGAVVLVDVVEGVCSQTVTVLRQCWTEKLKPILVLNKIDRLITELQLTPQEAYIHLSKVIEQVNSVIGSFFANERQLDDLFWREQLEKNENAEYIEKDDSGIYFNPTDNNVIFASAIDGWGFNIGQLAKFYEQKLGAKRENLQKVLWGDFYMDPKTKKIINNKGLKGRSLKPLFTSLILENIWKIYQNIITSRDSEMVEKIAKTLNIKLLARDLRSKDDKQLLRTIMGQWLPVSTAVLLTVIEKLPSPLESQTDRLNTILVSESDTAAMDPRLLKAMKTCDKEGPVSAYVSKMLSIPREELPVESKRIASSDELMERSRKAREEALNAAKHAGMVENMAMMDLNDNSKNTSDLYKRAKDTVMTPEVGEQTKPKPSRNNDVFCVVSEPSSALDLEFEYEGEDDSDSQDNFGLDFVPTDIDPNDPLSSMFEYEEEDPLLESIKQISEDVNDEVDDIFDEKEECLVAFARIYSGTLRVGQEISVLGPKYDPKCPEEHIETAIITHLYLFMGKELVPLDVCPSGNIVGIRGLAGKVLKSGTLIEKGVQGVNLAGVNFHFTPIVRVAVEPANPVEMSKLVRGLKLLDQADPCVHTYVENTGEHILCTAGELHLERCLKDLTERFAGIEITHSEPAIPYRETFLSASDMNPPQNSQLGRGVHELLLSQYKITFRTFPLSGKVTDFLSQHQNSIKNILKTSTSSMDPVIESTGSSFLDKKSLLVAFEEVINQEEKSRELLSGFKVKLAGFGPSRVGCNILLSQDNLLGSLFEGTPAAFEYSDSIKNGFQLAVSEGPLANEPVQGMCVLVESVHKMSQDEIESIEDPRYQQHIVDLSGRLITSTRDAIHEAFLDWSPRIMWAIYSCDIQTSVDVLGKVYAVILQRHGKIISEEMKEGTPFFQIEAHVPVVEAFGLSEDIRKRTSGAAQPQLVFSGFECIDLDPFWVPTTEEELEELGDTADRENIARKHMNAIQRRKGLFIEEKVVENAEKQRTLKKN", "assay": "Isothermal titration calorimetry (ITC): binding of guanine nucleotides or Sdo1 to Efl1 R1086Q", "conditions": "for Kd / -TΔSb / ΔGb / ΔHb / ΔCpb: guanine nucleotide; for ΔCpb: from ΔHb at 25–35 °C", "how_it_was_run": "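ITC at 25–35 °C in 50 mM Tris-HCl pH 8.0, 150 mM NaCl, 5% glycerol, with 5 mM MgCl2 or 2 mM EDTA; 30–50 µM GTPase in cell, 2–3 mM nucleotide titrated, eight-fold Sdo1 excess for complex. Kb, ΔHb, n from one-site fit; Mg isotherms by ternary coupled-equilibria model.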"}, "wild-type Efl1•Sdo1": {"tested_on": "wild-type Efl1•Sdo1", "design": "method as in PMID 30780079", "conditions": "−Mg^2+, cited from earlier work"}, "[1]": {"conditions": "Effect of Mg^2+, Efl1 R1086Q − Sdo1, 25 °C"}, "[2]": {"conditions": "Effect of Mg^2+, Efl1 R1086Q − Sdo1, 30 °C"}, "[3]": {"conditions": "Effect of Mg^2+, Efl1 R1086Q − Sdo1, 35 °C"}, "[4]": {"conditions": "Effect of Sdo1, Efl1 R1086Q + Mg^2+, 25 °C"}, "[5]": {"conditions": "Effect of Sdo1, Efl1 R1086Q + Mg^2+, 30 °C"}, "[6]": {"conditions": "Effect of Sdo1, Efl1 R1086Q + Mg^2+, 35 °C"}, "[7]": {"conditions": "Effect of Sdo1, Efl1 R1086Q − Mg^2+, 25 °C"}, "[8]": {"conditions": "Effect of Sdo1, Efl1 R1086Q − Mg^2+, 30 °C"}, "[9]": {"conditions": "Effect of Sdo1, Efl1 R1086Q − Mg^2+, 35 °C"}}, "note": "Values joined by “and” are separate entries in the source; they are usually repeats but may differ in a detail not shown here. Equal values may be shown once."}
{"smiles": "Nc1nc2c(ncn2[C@@H]2O[C@H](COP(=O)(O)OP(=O)(O)OP(=O)(O)O)[C@@H](O)[C@H]2O)c(=O)[nH]1", "note": "[GTP]", "values": [{"measurement": "Nconfres (number of residues changing conformation, absolute value)", "setting": "Efl1 R1086Q; +Mg^2+, 30 °C", "value": 3}, {"measurement": "Nconfrotb (number of routable bonds changing conformation, absolute value)", "setting": "Efl1 R1086Q; +Mg^2+, 30 °C", "value": 21}, {"measurement": "ΔCpconf", "setting": "Efl1 R1086Q; +Mg^2+, 30 °C", "value": 35, "unit": "cal mol^−1 K^−1"}, {"measurement": "ΔSb", "setting": "Efl1 R1086Q; +Mg^2+, 30 °C", "value": 25, "unit": "cal mol^−1 K^−1"}, {"measurement": "ΔSconf", "setting": "Efl1 R1086Q; +Mg^2+, 30 °C", "value": 36, "unit": "cal mol^−1 K^−1"}, {"measurement": "ΔSsolv", "setting": "Efl1 R1086Q; +Mg^2+, 30 °C", "value": "−2", "unit": "cal mol^−1 K^−1"}, {"measurement": "−ΔASAconf", "setting": "Efl1 R1086Q; +Mg^2+, 30 °C", "value": "−157", "unit": "Å^2"}, {"measurement": "-TΔs", "setting": "Efl1 R1086Q; [1]", "value": 2.1, "unit": "kJ/mol"}, {"measurement": "Δg", "setting": "Efl1 R1086Q; [1]", "value": -0.42, "unit": "kJ/mol"}, {"measurement": "Δh", "setting": "Efl1 R1086Q; [1]", "value": -2.34, "unit": "kJ/mol"}, {"measurement": "κ (heterotropic cooperativity)", "setting": "Efl1 R1086Q; [1]", "value": 1.0}, {"measurement": "-TΔs", "setting": "Efl1 R1086Q; [2]", "value": 5.02, "unit": "kJ/mol"}, {"measurement": "Δg", "setting": "Efl1 R1086Q; [2]", "value": 2.5, "unit": "kJ/mol"}, {"measurement": "Δh", "setting": "Efl1 R1086Q; [2]", "value": -2.64, "unit": "kJ/mol"}, {"measurement": "κ (heterotropic cooperativity)", "setting": "Efl1 R1086Q; [2]", "value": 0.4}, {"measurement": "-TΔs", "setting": "Efl1 R1086Q; [3]", "value": 5.44, "unit": "kJ/mol"}, {"measurement": "Δg", "setting": "Efl1 R1086Q; [3]", "value": 2.1, "unit": "kJ/mol"}, {"measurement": "Δh", "setting": "Efl1 R1086Q; [3]", "value": -3.26, "unit": "kJ/mol"}, {"measurement": "κ (heterotropic cooperativity)", "setting": "Efl1 R1086Q; [3]", "value": 0.4}, {"measurement": "-TΔs", "setting": "Efl1 R1086Q; [4]", "value": 10.5, "unit": "kJ/mol"}, {"measurement": "Δg", "setting": "Efl1 R1086Q; [4]", "value": 1.3, "unit": "kJ/mol"}, {"measurement": "Δh", "setting": "Efl1 R1086Q; [4]", "value": -8.79, "unit": "kJ/mol"}, {"measurement": "κ (heterotropic cooperativity)", "setting": "Efl1 R1086Q; [4]", "value": 0.6}, {"measurement": "-TΔs", "setting": "Efl1 R1086Q; [5]", "value": 20.1, "unit": "kJ/mol"}, {"measurement": "Δg", "setting": "Efl1 R1086Q; [5]", "value": 2.9, "unit": "kJ/mol"}, {"measurement": "Δh", "setting": "Efl1 R1086Q; [5]", "value": -17.2, "unit": "kJ/mol"}, {"measurement": "κ (heterotropic cooperativity)", "setting": "Efl1 R1086Q; [5]", "value": 0.3}, {"measurement": "-TΔs", "setting": "Efl1 R1086Q; [6]", "value": 29.7, "unit": "kJ/mol"}, {"measurement": "Δg", "setting": "Efl1 R1086Q; [6]", "value": 3.8, "unit": "kJ/mol"}, {"measurement": "Δh", "setting": "Efl1 R1086Q; [6]", "value": -25.9, "unit": "kJ/mol"}, {"measurement": "κ (heterotropic cooperativity)", "setting": "Efl1 R1086Q; [6]", "value": 0.3}, {"measurement": "-TΔs", "setting": "Efl1 R1086Q; [7]", "value": 23.4, "unit": "kJ/mol"}, {"measurement": "Δg", "setting": "Efl1 R1086Q; [7]", "value": 0, "unit": "kJ/mol"}, {"measurement": "Δh", "setting": "Efl1 R1086Q; [7]", "value": -23.4, "unit": "kJ/mol"}, {"measurement": "κ (heterotropic cooperativity)", "setting": "Efl1 R1086Q; [7]", "value": 1.0}, {"measurement": "-TΔs", "setting": "Efl1 R1086Q; [8]", "value": 26.4, "unit": "kJ/mol"}, {"measurement": "Δg", "setting": "Efl1 R1086Q; [8]", "value": 2.9, "unit": "kJ/mol"}, {"measurement": "Δh", "setting": "Efl1 R1086Q; [8]", "value": -23.4, "unit": "kJ/mol"}, {"measurement": "κ (heterotropic cooperativity)", "setting": "Efl1 R1086Q; [8]", "value": 0.3}, {"measurement": "-TΔs", "setting": "Efl1 R1086Q; [9]", "value": 27.2, "unit": "kJ/mol"}, {"measurement": "Δg", "setting": "Efl1 R1086Q; [9]", "value": 3.8, "unit": "kJ/mol"}, {"measurement": "Δh", "setting": "Efl1 R1086Q; [9]", "value": -23.4, "unit": "kJ/mol"}, {"measurement": "κ (heterotropic cooperativity)", "setting": "Efl1 R1086Q; [9]", "value": 0.2}, {"measurement": "Kd", "setting": "Efl1 R1086Q; +Mg^2+, 25 °C", "value": "16 ± 2", "unit": "µM"}, {"measurement": "Kd", "setting": "Efl1 R1086Q; +Mg^2+, 30 °C", "value": "16 ± 3", "unit": "µM"}, {"measurement": "Kd", "setting": "Efl1 R1086Q; +Mg^2+, 35 °C", "value": "13 ± 2", "unit": "µM"}, {"measurement": "Kd", "setting": "Efl1 R1086Q; −Mg^2+, 25 °C", "value": "17 ± 5", "unit": "µM"}, {"measurement": "Kd", "setting": "Efl1 R1086Q; −Mg^2+, 30 °C", "value": "6 ± 1", "unit": "µM"}, {"measurement": "Kd", "setting": "Efl1 R1086Q; −Mg^2+, 35 °C", "value": "6 ± 1", "unit": "µM"}, {"measurement": "-TΔSb", "setting": "Efl1 R1086Q; +Mg^2+, 25 °C", "value": -31.7, "unit": "kJ/mol"}, {"measurement": "ΔGb", "setting": "Efl1 R1086Q; +Mg^2+, 25 °C", "value": -27.3, "unit": "kJ/mol"}, {"measurement": "ΔHb", "setting": "Efl1 R1086Q; +Mg^2+, 25 °C", "value": "4.35 ± 0.21", "unit": "kJ/mol"}, {"measurement": "-TΔSb", "setting": "Efl1 R1086Q; +Mg^2+, 30 °C", "value": -32.4, "unit": "kJ/mol"}, {"measurement": "ΔGb", "setting": "Efl1 R1086Q; +Mg^2+, 30 °C", "value": -27.9, "unit": "kJ/mol"}, {"measurement": "ΔHb", "setting": "Efl1 R1086Q; +Mg^2+, 30 °C", "value": "4.48 ± 0.13", "unit": "kJ/mol"}, {"measurement": "-TΔSb", "setting": "Efl1 R1086Q; +Mg^2+, 35 °C", "value": -33.5, "unit": "kJ/mol"}, {"measurement": "ΔGb", "setting": "Efl1 R1086Q; +Mg^2+, 35 °C", "value": -28.8, "unit": "kJ/mol"}, {"measurement": "ΔHb", "setting": "Efl1 R1086Q; +Mg^2+, 35 °C", "value": "4.69 ± 0.25", "unit": "kJ/mol"}, {"measurement": "ΔCpb", "setting": "Efl1 R1086Q; +Mg^2+", "value": "10 ± 2 cal mol^−1 K^−1 and 10 cal mol^−1 K^−1"}, {"measurement": "-TΔSb", "setting": "Efl1 R1086Q; −Mg^2+, 25 °C", "value": -34, "unit": "kJ/mol"}, {"measurement": "ΔGb", "setting": "Efl1 R1086Q; −Mg^2+, 25 °C", "value": -27.3, "unit": "kJ/mol"}, {"measurement": "ΔHb", "setting": "Efl1 R1086Q; −Mg^2+, 25 °C", "value": "6.69 ± 1.3", "unit": "kJ/mol"}, {"measurement": "-TΔSb", "setting": "Efl1 R1086Q; −Mg^2+, 30 °C", "value": -37.2, "unit": "kJ/mol"}, {"measurement": "ΔGb", "setting": "Efl1 R1086Q; −Mg^2+, 30 °C", "value": -30.1, "unit": "kJ/mol"}, {"measurement": "ΔHb", "setting": "Efl1 R1086Q; −Mg^2+, 30 °C", "value": "7.11 ± 0.42", "unit": "kJ/mol"}, {"measurement": "-TΔSb", "setting": "Efl1 R1086Q; −Mg^2+, 35 °C", "value": -38.9, "unit": "kJ/mol"}, {"measurement": "ΔGb", "setting": "Efl1 R1086Q; −Mg^2+, 35 °C", "value": -31, "unit": "kJ/mol"}, {"measurement": "ΔHb", "setting": "Efl1 R1086Q; −Mg^2+, 35 °C", "value": "7.95 ± 0.42", "unit": "kJ/mol"}, {"measurement": "ΔCpb", "setting": "Efl1 R1086Q; −Mg^2+", "value": "30 cal mol^−1 K^−1 and 30 ± 6 cal mol^−1 K^−1"}, {"measurement": "overall heat-capacity change to drive the protein into ternary complex GTPase•GTP•Sdo1", "setting": "Efl1 R1086Q; mutant Efl1", "value": "−410", "unit": "cal mol^−1 K^−1"}, {"measurement": "Nconfres (number of residues changing conformation, absolute value)", "setting": "Efl1 R1086Q; −Mg^2+, 30 °C", "value": 4}, {"measurement": "Nconfrotb (number of routable bonds changing conformation, absolute value)", "setting": "Efl1 R1086Q; −Mg^2+, 30 °C", "value": 27}, {"measurement": "ΔCpconf", "setting": "Efl1 R1086Q; −Mg^2+, 30 °C", "value": 41, "unit": "cal mol^−1 K^−1"}, {"measurement": "ΔSb", "setting": "Efl1 R1086Q; −Mg^2+, 30 °C", "value": 29, "unit": "cal mol^−1 K^−1"}, {"measurement": "ΔSconf", "setting": "Efl1 R1086Q; −Mg^2+, 30 °C", "value": 44, "unit": "cal mol^−1 K^−1"}, {"measurement": "ΔSsolv", "setting": "Efl1 R1086Q; −Mg^2+, 30 °C", "value": "−7", "unit": "cal mol^−1 K^−1"}, {"measurement": "−ΔASAconf", "setting": "Efl1 R1086Q; −Mg^2+, 30 °C", "value": "−184", "unit": "Å^2"}, {"measurement": "-TΔSb", "setting": "wild-type Efl1•Sdo1; 30 °C", "value": -19.7, "unit": "kJ/mol"}, {"measurement": "Kd", "setting": "wild-type Efl1•Sdo1; 30 °C", "value": 11, "unit": "µM"}, {"measurement": "ΔGb", "setting": "wild-type Efl1•Sdo1; 30 °C", "value": -28.5, "unit": "kJ/mol"}, {"measurement": "ΔHb", "setting": "wild-type Efl1•Sdo1; 30 °C", "value": "-8.79 ± 0.84", "unit": "kJ/mol"}, {"measurement": "ΔCpb", "setting": "wild-type Efl1•Sdo1", "value": "−90 cal mol^−1 K^−1 and −90 ± 5 cal mol^−1 K^−1"}]}
